Assay results as given in article PMC3688528, “Location of the CD8 T Cell Epitope within the Antigenic Precursor Determines Immunogenicity and Protection against the Toxoplasma gondii Parasite” (PLoS Pathogens, 2013).
Where “and” joins values, the source holds several entries; their conditions need not be identical. Identical values can stand only once.

Columns and labels:
[1] = system: naïve T. gondii-specific CD8α+ T cells in naive B10.D2 mice; test: Naïve T cell enumeration by tetramer-based enrichment and flow cytometry; set-up: species or system mouse
Experimental: We next assessed whether abundance of peptide-specific T cells in the repertoire of naïve mice may control immunodominance. We employed a tetramer-based enrichment procedure, [24] to enumerate naïve T cells isolated from spleen and lymph nodes of uninfected mice and specific for each of the 3 epitopes. Numbers of T cell precursors were analyzed by flow cytometry after gating on a population of live dump^− (dump = B220, F4/80, MHC II) CD3^+ CD8α^+ cells (Fig. S4 in Text S1). […] Thus the immunodominance of HF10 cannot be explained by a high starting precursor frequency of specific T cells.
Spleen and major lymph nodes from individual naïve B10.D2 mice were harvested. Single cell suspension was stained with PE-labeled (Prozyme) SM9:L^d, IF9:L^d or HF10:L^d tetramers (NIH tetramer facility). Tetramer enrichment was performed on each sample with anti-PE magnetic beads (Miltenyi Biotec) and each sample was stained with antibodies (BD Biosciences) for flow cytometry analysis. Total numbers of CD8α^+tetramer^+ T cells per mouse were determined as before, [24].

[2] = system: T. gondii-specific CD8 T cells of infected B10.D2 mice; test: Ex vivo staining of peptide-specific CD8 T cells with peptide-loaded L^d DimerX; format: cell-based, mouse; conditions: B10.D2 mice 4 weeks post-infection; HF10 value in CEP+GRA6II-infected mice; mean +/- s.d.; 3 independent experiments pooled; SD
Experimental: (§1) Mice were sacrificed 3 to 4 weeks after infection. Spleens were dissociated into single-cell suspensions in complete RPMI (Invitrogen) supplemented with 10% (vol/vol) FCS (Hyclone). Samples were depleted of erythrocytes with ACK lysis buffer (100 µM EDTA, 160 mM NH4Cl and 10 mM NaHCO3). Leukocytes from the brain were prepared as in [17]. In brief, brains were minced and digested for 1 h at 37°C with 1 mg/ml collagenase (Sigma) and 100 µg/ml DNAseI (Roche) in complete RPMI. Brain suspensions were filtered through 70-µm cell strainers and centrifuged for 10 min at 200 g. Cells were resuspended in 60% (vol/vol) Percoll (GE Healthcare), overlaid on 30% (vol/vol) Percoll and centrifuged 20 min at 1,000 g. Infiltrating mononuclear cells were collected from the gradient interface and the remaining erythrocytes were lyzed with ACK lysis buffer.
(§2) For other stainings, surfaces were labeled according to standard procedures with flow cytometry buffer (3% (vol/vol) FCS and 1 mM EDTA in PBS). Intracellular IFN-γ was detected with the Cytofix/Cytoperm kit (BD Pharmingen). DimerX H-2L^d:Ig (fusion protein of H-2L^d and immunoglobulin; BD Biosciences) was used according to the manufacturer's instructions and as described in [17]. All flow cytometry data were acquired on an XL Analyzer (Coulter) or a LSRII (Becton Dickinson) and were analyzed with FlowJo software (Tree Star).

L^d MHC I molecule = molecular target: T1, L^d MHC I molecule (Mus musculus, UniProt P01897); test: MHC I stabilization assay on TAP-deficient RMA-S.L^d cells; format: binding; conditions: flow cytometry MFI
T1 construct: expressed in transfected cells; host or cells: RMA-S.L^d cells (TAP-deficient), gift from T. Hansen
T1 sequence (P01897 25-362): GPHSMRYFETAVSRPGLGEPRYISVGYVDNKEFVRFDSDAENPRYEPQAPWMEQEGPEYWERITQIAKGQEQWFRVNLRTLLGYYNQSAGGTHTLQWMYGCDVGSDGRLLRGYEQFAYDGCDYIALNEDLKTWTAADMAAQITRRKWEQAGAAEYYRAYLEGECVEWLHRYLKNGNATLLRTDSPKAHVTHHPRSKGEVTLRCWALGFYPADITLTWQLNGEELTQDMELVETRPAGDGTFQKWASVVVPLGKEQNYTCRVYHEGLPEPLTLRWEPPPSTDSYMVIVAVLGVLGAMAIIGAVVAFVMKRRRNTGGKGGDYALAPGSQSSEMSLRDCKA
T1 sequence (P01887 21-119 partner): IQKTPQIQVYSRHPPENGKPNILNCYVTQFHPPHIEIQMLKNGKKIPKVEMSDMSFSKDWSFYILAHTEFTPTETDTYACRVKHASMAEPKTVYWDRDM
Text: We took advantage of the genetic diversity among three common T. gondii strains (type I, II and III). While the GRA4-derived SM9 and ROP7-derived IF9 peptides are conserved (data not shown and ToxoDB.org), the GRA6-derived HF10 peptide is polymorphic between type II and type I/III strains. Within the last 10 residues of GRA6, four non-synonymous single-nucleotide polymorphisms differentiate the type II sequence (HF10: HPGSVNEFDF) from the type I/III sequence (HY10: HPERVNVFDY) (Fig. 1A and Fig. S1 in Text S1). We noted that instead of a phenylalanine (F), the C-terminal residue in GRA6III is a tyrosine (Y), a residue not expected to be an appropriate anchor residue for L^d binding. To evaluate the ability of HF10 and HY10 to bind to L^d, we used an MHC I stabilization assay. TAP-deficient RMA-S cells display empty, unstable MHC I molecules and addition of exogenous peptides that can bind to MHC I can stabilize their expression on the cell surface, as read out by flow cytometry.
RMA-S.L^d cells were a gift from T. Hansen (St-Louis, MO, USA). RMA-S.L^d cells were incubated at 37°C, 5% CO2 for 8 h to saturate the culture medium with CO2. The flask was sealed with parafilm and incubated at RT overnight. The next day, cells were washed with PBS and plated at 3×10^5 cells/well in a 96-W plate. Peptide was added to the cells in serial dilutions. The plate was incubated for 1 h at RT and 3 h at 37°C. Cells were stained with the 30-5-7 antibody (specific for conformed, peptide-bound L^d) and a phycoerythrine (PE)-coupled goat anti-mouse secondary antibody and analyzed by flow cytometry.

[3] = system: CD8 T cells from spleens of T. gondii-infected B10.D2 mice; test: Ex vivo IFN-γ intracellular staining of splenocytes restimulated in vitro with peptide; format: cell-based; conditions: splenocytes of B10.D2 mice 3 weeks post-infection with CEP+GRA6II; one representative mouse out of 3
Experimental: as §1, §2

type II parasite = conditions: H2^d mice immunized with HF10-loaded bone marrow-derived dendritic cells; cited from earlier work
[4] = uninfected B10.D2 mice, tetramer enrichment
[5] = MHC I stabilization on RMA-S.L^d cells, representative of 3 assays

For “HPGSVNEFDF [HF10, decamer peptide derived from type II GRA6 C-terminus, presented by L^d MHC I]”, the “Number of tetramer+ cells / mouse (naïve peptide-specific CD8α+ T cells)” value ([1]; spleen and lymph nodes of uninfected B10.D2 mice, peptide:L^d tetramer enrichment, mean, pooled from 3 independent experiments) was 400 cells / mouse, the “Frequency of naïve HF10-specific CD8 T cells, fold lower than IF9-specific” value [1, 4] was roughly 3 fold and the “Frequency of naïve HF10-specific CD8 T cells, fold lower than SM9-specific” value [1, 4] was “around 10 fold”. For the same sequence, the “Frequency of peptide-specific CD8 T cells in the spleen (peptide-loaded L^d dimers)” value [2] was 9.5%+/−3.7, the “Affinity for L^d relative to SM9 (in words)” value (L^d MHC I molecule; [5]) was “fell in the same range as the T. gondii subdominant peptide SM9” and the “Affinity for L^d, fold higher than that of IF9, QL9 and YL9” value (L^d MHC I molecule; [5]) was roughly 10 fold. The “Peptide concentration stabilizing L^d surface expression, fold lower compared to HY10” value (L^d MHC I molecule; RMA-S.L^d cells pulsed with serial peptide dilutions, 1 h RT and 3 h 37°C, 30-5-7 antibody, representative of 2 assays) was 1000 fold, the “Percentage of IFN-γ+ out of CD8+ cells after peptide restimulation” value [3] was 24.7% and ~25% and the “Protection against lethal parasite challenge (in words)” value (type II parasite) was “protects against lethal type II parasite challenge”.
